Here are results for 17 molecules from US11530221B2, “Pyrimido[4,5-d]pyrimidin-2-one derivatives as protein kinase inhibitors” (KOREA INSTITUTE OF SCIENCE AND TECHNOLOGY, priority 2019, dated 2022).

One experiment has as its target c-Src (Homo sapiens, UniProt P12931). Description: IC50 inhibitory activity against c-Src kinase. The format is biochemical. The method, then:
(§1) IC50 values were calculated by measuring the inhibitory activity against LCK, c-Src, p38a/MAPK14, ABL1, DDR1 and FGR kinases of the compounds of the present invention.

A further experiment addresses LCK (Homo sapiens, UniProt P06239). As to the kind of experiment: IC50 inhibitory activity against LCK kinase. The format is biochemical. The protocol:
as §1

SMILES strings stand for the structures. Read-outs that look alike come from different tables or passages of the source. Square brackets hold non-standard residues; d marks the D form. Peptide text beside a SMILES is read from it. * marks the point of attachment. X1 = Cc1ccc(Nc2ncc3c(n2)N(C)C(=O)N(c2cc(C(=O)*)ccc2C)C3)cn1; Pip = O=C(O)[C@@H]1CCCCN1; Ac3c = NC1(C(=O)O)CC1; Aib = CC(C)(N)C(=O)O

c-Src, sequence (P12931 whole entry): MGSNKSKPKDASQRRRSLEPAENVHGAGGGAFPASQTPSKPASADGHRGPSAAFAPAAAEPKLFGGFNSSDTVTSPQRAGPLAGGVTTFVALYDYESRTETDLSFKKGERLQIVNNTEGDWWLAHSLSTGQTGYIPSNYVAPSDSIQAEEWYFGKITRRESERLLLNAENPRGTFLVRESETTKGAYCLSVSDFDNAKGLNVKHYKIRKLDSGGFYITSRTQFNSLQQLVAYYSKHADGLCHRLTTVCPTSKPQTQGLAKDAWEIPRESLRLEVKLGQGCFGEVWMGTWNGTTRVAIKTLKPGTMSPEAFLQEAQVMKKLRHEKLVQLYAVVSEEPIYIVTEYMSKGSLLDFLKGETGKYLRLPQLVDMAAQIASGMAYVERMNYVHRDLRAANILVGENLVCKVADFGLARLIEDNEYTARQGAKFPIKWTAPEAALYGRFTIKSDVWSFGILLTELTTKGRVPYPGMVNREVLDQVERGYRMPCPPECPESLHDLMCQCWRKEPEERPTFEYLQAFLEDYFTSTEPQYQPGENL
LCK, sequence (P06239 whole entry): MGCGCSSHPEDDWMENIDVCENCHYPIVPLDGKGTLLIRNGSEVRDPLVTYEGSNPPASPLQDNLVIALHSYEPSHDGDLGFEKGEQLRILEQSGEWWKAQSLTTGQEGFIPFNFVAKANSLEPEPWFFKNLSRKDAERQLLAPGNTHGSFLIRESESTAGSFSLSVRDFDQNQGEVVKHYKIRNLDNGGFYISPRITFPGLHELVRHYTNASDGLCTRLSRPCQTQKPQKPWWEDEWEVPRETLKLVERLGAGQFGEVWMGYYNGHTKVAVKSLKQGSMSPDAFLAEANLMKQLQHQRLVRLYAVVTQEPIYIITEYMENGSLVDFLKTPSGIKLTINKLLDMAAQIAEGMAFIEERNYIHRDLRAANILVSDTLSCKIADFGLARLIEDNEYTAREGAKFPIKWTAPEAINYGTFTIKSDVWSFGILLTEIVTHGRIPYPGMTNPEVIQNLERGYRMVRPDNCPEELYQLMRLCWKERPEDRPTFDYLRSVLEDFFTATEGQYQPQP

With `Cc1ccc(Nc2ncc3c(n2)N(C)C(=O)N(c2cc(C(=O)N[C@@H](C)C(=O)N4CCC[C@H]4C(=O)NC(C)(C)C(=O)N[C@H](C(=O)N(C)C)C(C)C)ccc2C)C3)cn1` [Example 25, (S)—N-(1-(((S)-1-(dimethylamino)-3-methyl-1-oxobutan-2-yl)amino)-2-methyl-1-oxopropan-2-yl)-1-((4-methyl-3-(1-methyl-7-((6-methylpyridin-3-yl)amino)-2-oxo-1,4-dihydropyrimido[4,5-d]pyrimidin-3(2H)-yl)benzoyl)-L-alanyl)pyrrolidine-2-carboxamide] (X1-AP[Aib]V-NMe2), the concentration for half-maximal inhibition (IC50) – broadly, the concentration needed to halve the response being measured – against c-Src is over 600 nM; on LCK, 200 to 400 nM.

Consider `Cc1ccc(Nc2ncc3c(n2)N(C)C(=O)N(c2cc(C(=O)N[C@@H](Cc4ccccc4)C(=O)N4CCC[C@@H]4C(=O)N[C@H](C(=O)N[C@H](C)c4ccccc4)C(C)C)ccc2C)C3)cn1` [Example 7, (R)—N—((S)-3-methyl-1-oxo-1-(((R)-1-phenylethyl)amino)butan-2-yl)-1-((4-methyl-3-(1-methyl-7-((6-methylpyridin-3-yl)amino)-2-oxo-1,4-dihydropyrimido[4,5-d]pyrimidin-3(2H)-yl)benzoyl)-L-phenylalanyl)pyrrolidine-2-carboxamide], for which the results for the IC50 at c-Src (read-out: c-Src IC50) and on LCK (read-out: LCK IC50) were 400 to 600 nM and 1 to 200 nM, respectively.

With `Cc1ccc(Nc2ncc3c(n2)N(C)C(=O)N(c2cc(C(=O)N[C@H](C(=O)N4CCC[C@@H]4C(=O)NC(C)(C)C(=O)N[C@H](C(=O)N(C)C)C(C)C)C(C)C)ccc2C)C3)cn1` [Example 23, (R)—N-(1-(((S)-1-(dimethylamino)-3-methyl-1-oxobutan-2-yl)amino)-2-methyl-1-oxopropan-2-yl)-1-((4-methyl-3-(1-methyl-7-((6-methylpyridin-3-yl)amino)-2-oxo-1,4-dihydropyrimido[4,5-d]pyrimidin-3(2H)-yl)benzoyl)-L-valyl)pyrrolidine-2-carboxamide] (X1-V[dP][Aib]V-NMe2), the IC50 on c-Src (read-out: c-Src IC50) and on LCK (read-out: LCK IC50) was over 600 nM each time.

Turning to `Cc1ccc(Nc2ncc3c(n2)N(C)C(=O)N(c2cc(C(=O)N[C@H](C(=O)N4CCC[C@H]4C(=O)N[C@H](C(=O)N[C@H](C)c4ccccc4)C(C)C)C(C)C)ccc2C)C3)cn1` [Example 9, (S)—N—((S)-3-methyl-1-oxo-1-(((R)-1-phenylethyl)amino)butan-2-yl)-1-((4-methyl-3-(1-methyl-7-((6-methylpyridin-3-yl)amino)-2-oxo-1,4-dihydropyrimido[4,5-d]pyrimidin-3(2H)-yl)benzoyl)-L-valyl)pyrrolidine-2-carboxamide], the IC50 at c-Src (read-out: c-Src IC50) is over 600 nM; at LCK (read-out: LCK IC50) it was 1 to 200 nM.

For the molecule `Cc1ccc(Nc2ncc3c(n2)N(C)C(=O)N(c2cc(NC(=O)c4ccc5c(c4)N(CC(C)C)C(=O)[C@H](CC(C)C)N=C5c4ccccc4)ccc2C)C3)cn1` [Example 39, (S)-1,3-diisobutyl-N-(4-methyl-3-(1-methyl-7-((6-methylpyridin-3-yl)amino)-2-oxo-1,4-dihydropyrimido[4,5-d]pyrimidin-3(2H)-yl)phenyl)-2-oxo-5-phenyl-2,3-dihydro-1H-benzo[e][1,4]diazepine-8-carboxamide], the results for the concentration for half-maximal inhibition (IC50) at c-Src (read-out: c-Src IC50) and at LCK (read-out: LCK IC50) were 400 to 600 nM and 1 to 200 nM, respectively.

As for `CC1=N[C@@H](CC(C)C)C(=O)N(Cc2ccccc2)c2cc(C(=O)Nc3ccc(C)c(N4Cc5cnc(Nc6ccc(C)nc6)nc5N(C)C4=O)c3)ccc21` [Example 41, (S)-1-benzyl-3-isobutyl-5-methyl-N-(4-methyl-3-(1-methyl-7-((6-methylpyridin-3-yl)amino)-2-oxo-1,4-dihydropyrimido[4,5-d]pyrimidin-3(2H)-yl)phenyl)-2-oxo-2,3-dihydro-1H-benzo[e][1,4]diazepine-8-carboxamide], the IC50 at c-Src (read-out: c-Src IC50) and at LCK (read-out: LCK IC50) was 1 to 200 nM in each case.

Turning to `Cc1ccc(Nc2ncc3c(n2)N(C)C(=O)N(c2cc(NC(=O)c4ccc5c(c4)NC(=O)[C@H](Cc4ccccc4C)N=C5c4ccccc4)ccc2C)C3)cn1` [Example 29, (S)—N-(4-methyl-3-(1-methyl-7-((6-methylpyridin-3-yl)amino)-2-oxo-1,4-dihydropyrimido[4,5-d]pyrimidin-3(2H)-yl)phenyl)-3-(2-methylbenzyl)-2-oxo-5-phenyl-2,3-dihydro-1H-benzo[e][1,4]diazepine-8-carboxamide], the half-inhibitory concentration (IC50) at c-Src (read-out: c-Src IC50) and on LCK (read-out: LCK IC50) was 1 to 200 nM throughout.

In the case of `Cc1ccc(Nc2ncc3c(n2)N(C)C(=O)N(c2cc(C(=O)N[C@H](C(=O)N4CCC[C@@H]4C(=O)NC4(C(=O)N[C@@H](CC(C)C)C(=O)N(C)C)CC4)C(C)C)ccc2C)C3)cn1` [Example 3, (R)—N-(1-(((S)-1-(dimethylamino)-4-methyl-1-oxopentan-2-yl)carbamoyl)cyclopropyl)-1-((4-methyl-3-(1-methyl-7-((6-methylpyridin-3-yl)amino)-2-oxo-1,4-dihydropyrimido[4,5-d]pyrimidin-3(2H)-yl)benzoyl)-L-valyl)pyrrolidine-2-carboxamide] (X1-V[dP][Ac3c]L-NMe2), the IC50 is over 600 nM on c-Src and 1 to 200 nM against LCK.

On to `C=CCCC1=N[C@@H](CC(=O)Nc2ccc(C)c(N3Cc4cnc(Nc5ccc(C)nc5)nc4N(C)C3=O)c2)C(=O)N(Cc2ccccc2)c2ccccc21` [Example 46, (S)-2-(1-benzyl-5-(but-3-en-1-yl)-2-oxo-2,3-dihydro-1H-benzo[e][1,4]diazepin-3-yl)-N-(4-methyl-3-(1-methyl-7-((6-methylpyridin-3-yl)amino)-2-oxo-1,4-dihydropyrimido[4,5-d]pyrimidin-3(2H)-yl)phenyl)acetamide], for which the half-inhibitory concentration (IC50) on c-Src (read-out: c-Src IC50) and on LCK (read-out: LCK IC50) was 1 to 200 nM each time.

For the molecule `Cc1ccc(Nc2ncc3c(n2)N(C)C(=O)N(c2cc(C(=O)N[C@H](C(=O)N4CCC[C@H]4C(=O)NCC(=O)N[C@@H](CC(C)C)C(=O)N(C)C)C(C)C)ccc2C)C3)cn1` [Example 6, (S)—N-(2-(((S)-1-(dimethylamino)-4-methyl-1-oxopentan-2-yl)amino)-2-oxoethyl)-1-((4-methyl-3-(1-methyl-7-((6-methylpyridin-3-yl)amino)-2-oxo-1,4-dihydropyrimido[4,5-d]pyrimidin-3(2H)-yl)benzoyl)-L-valyl)pyrrolidine-2-carboxamide] (X1-VPGL-NMe2), the 50% inhibitory concentration (IC50) against c-Src was over 600 nM; on LCK, 1 to 200 nM.

In the case of `Cc1ccc(Nc2ncc3c(n2)N(C)C(=O)N(c2cc(NC(=O)c4ccc5c(c4)NC(=O)[C@H](Cc4cccc(F)c4)N=C5c4ccccc4)ccc2C)C3)cn1` [Example 27, (S)-3-(3-fluorobenzyl)-N-(4-methyl-3-(1-methyl-7-((6-methylpyridin-3-yl)amino)-2-oxo-1,4-dihydropyrimido[4,5-d]pyrimidin-3(2H)-yl)phenyl)-2-oxo-5-phenyl-2,3-dihydro-1H-benzo[e][1,4]diazepine-8-carboxamide], the half-inhibitory concentration (IC50) on c-Src (read-out: c-Src IC50) and at LCK (read-out: LCK IC50) was 1 to 200 nM each time.

Take `Cc1ccc(Nc2ncc3c(n2)N(C)C(=O)N(c2cc(NC(=O)c4ccc5c(c4)N(CC(=O)NCc4ccccc4)C(=O)[C@H](CC(C)C)N=C5c4ccccc4)ccc2C)C3)cn1` [Example 43, (S)-1-(2-(benzylamino)-2-oxoethyl)-3-isobutyl-N-(4-methyl-3-(1-methyl-7-((6-methylpyridin-3-yl)amino)-2-oxo-1,4-dihydropyrimido[4,5-d]pyrimidin-3(2H)-yl)phenyl)-2-oxo-5-phenyl-2,3-dihydro-1H-benzo[e][1,4]diazepine-8-carboxamide]: the 50% inhibitory concentration (IC50) on c-Src (read-out: c-Src IC50) and at LCK (read-out: LCK IC50) was 1 to 200 nM throughout.

With `Cc1ccc(Nc2ncc3c(n2)N(C)C(=O)N(c2cc(NC(=O)c4ccc5c(c4)NC(=O)[C@@H](Cc4ccccc4)N=C5c4ccccc4)ccc2C)C3)cn1` [Example 36, (R)-3-benzyl-N-(4-methyl-3-(1-methyl-7-((6-methylpyridin-3-yl)amino)-2-oxo-1,4-dihydropyrimido[4,5-d]pyrimidin-3(2H)-yl)phenyl)-2-oxo-5-phenyl-2,3-dihydro-1H-benzo[e][1,4]diazepine-8-carboxamide], the IC50 on c-Src (read-out: c-Src IC50) and at LCK (read-out: LCK IC50) was 1 to 200 nM each time.

`Cc1ccc(Nc2ncc3c(n2)N(C)C(=O)N(c2cc(NC(=O)c4ccc5c(c4)NC(=O)[C@H](Cc4ccc(F)cc4)N=C5c4ccccc4)ccc2C)C3)cn1` [Example 28, (S)-3-(4-fluorobenzyl)-N-(4-methyl-3-(1-methyl-7-((6-methylpyridin-3-yl)amino)-2-oxo-1,4-dihydropyrimido[4,5-d]pyrimidin-3(2H)-yl)phenyl)-2-oxo-5-phenyl-2,3-dihydro-1H-benzo[e][1,4]diazepine-8-carboxamide]: the IC50 at c-Src (read-out: c-Src IC50) and at LCK (read-out: LCK IC50) was 1 to 200 nM throughout.

Consider `Cc1ccc(Nc2ncc3c(n2)N(C)C(=O)N(c2cc(C(=O)N[C@H](C(=O)N4CCC[C@@H]4C(=O)N[C@H](C(=O)N[C@H](C)c4ccccc4)C(C)C)C(C)C)ccc2C)C3)cn1` [Example 8, (R)—N—((S)-3-methyl-1-oxo-1-(((R)-1-phenylethyl)amino)butan-2-yl)-1-((4-methyl-3-(1-methyl-7-((6-methylpyridin-3-yl)amino)-2-oxo-1,4-dihydropyrimido[4,5-d]pyrimidin-3(2H)-yl)benzoyl)-L-valyl)pyrrolidine-2-carboxamide], for which the IC50 at c-Src (read-out: c-Src IC50) was over 600 nM; at LCK (read-out: LCK IC50), 400 to 600 nM.

`Cc1ccc(Nc2ncc3c(n2)N(C)C(=O)N(c2cc(C(=O)N[C@H](C(=O)N4CCCC[C@H]4C(=O)NC(C)(C)C(=O)N[C@@H](CC(C)C)C(=O)N(C)C)C(C)C)ccc2C)C3)cn1` [Example 13, (S)—N-(1-(((S)-1-(dimethylamino)-4-methyl-1-oxopentan-2-yl)amino)-2-methyl-1-oxopropan-2-yl)-1-((4-methyl-3-(1-methyl-7-((6-methylpyridin-3-yl)amino)-2-oxo-1,4-dihydropyrimido[4,5-d]pyrimidin-3(2H)-yl)benzoyl)-L-valyl)piperidine-2-carboxamide] (X1-V[Pip][Aib]L-NMe2): the IC50 lay within 400 to 600 nM on c-Src (read-out: c-Src IC50) and 1 to 200 nM on LCK (read-out: LCK IC50).

On to `Cc1ccc(Nc2ncc3c(n2)N(C)C(=O)N(c2cc(C(=O)N[C@H](C(=O)N4CCC[C@H]4C(=O)N[C@@H](Cc4ccccc4)C(=O)N[C@@H](CC(C)C)C(=O)N(C)C)C(C)C)ccc2C)C3)cn1` [Example 11] (X1-VPFL-NMe2), for which the IC50 on c-Src (read-out: c-Src IC50) and on LCK (read-out: LCK IC50) was 1 to 200 nM in each case.
